One data set concerns the target Full-length human DNMT1 (Homo sapiens (Human), UniProt P26358). Kind of data set: DNMT1 Scintillation Proximity Assay (SPA) - Assay A. It counts as biochemical. The note with it: footnote a: DNMT1 full length. The procedure: DNMT1 Scintillation Proximity Assay (SPA)—Assay A (Full-Length Human DNMT1)
This assay used Scintillation Proximity technology in a signal increase format to evaluate the potency of compounds. Full-length human DNMT1, hemi-methylated DNA duplex*, and tritiated SAM were utilized to monitor activity. Assay plate creation consisted of the following parameters: 500 nL of an 11 pt, 3-fold serial dilution of compound was stamped into a 96 well Costar plate (#3884). Assay buffer mix was made on the day of assay consisting of: 20 mM Tris pH 7.5, 1 mM DTT, 1 mM EDTA, and 5% glycerol. A 2× enzyme mix was then prepared consisting of 30 nM DNMT1 protein (full length human DNMT, made in house) in assay buffer. The 2× substrate mix was made last, and consisted of 160 nM 40mer hemi-methylated DNA*, 0.48 μM ^3H-SAM, and 2.92 μM cold SAM in assay buffer (^3H-SAM is added last). The quench (1 mM SAH) was made in bulk and frozen at −20 until the time of use. Ten uL of the 2× substrate mix was added to the entire plate using a multichannel electronic pipette. Plate was shaken for at least 10s between additions to ensure mixing. Next, 20 uL of 2× quench mix was added to column 12 using a multichannel pipette (shake plate). Using a multichannel electronic pipette, 10 uL of 2× enzyme mix was added to the full plate starting with column […] (column 12 last to avoid pre-quench carryover). Plates were incubated on the shaker for 30 minutes with the plate covered. At the end of the incubation period, 20 uL of quench mix were added to all wells except column 12 (shake plate) followed by the addition of 20 uL of 3 mg/mL PerkinElmer PEI PVT SPA Beads (Cat. #RPNQ0097) diluted in DNAse free water and allowed to shake for at least 30 minutes. Plates were sealed with a clear seal and centrifuged at 500 rpm for 1 min. Plates were read on a MicroBeta (Perkin Elmer, read for ^3H (1 min/well).
Microsoft Excel was used to analyze the data up to Vi/Vo and GraFit was used to fit the data. Responses were normalized to the uninhibited (DMSO) and pre-quenched controls within each plate. Dose-response curves were analyzed using a three-parameter logistic fit with Ymin constrained to 0 and results were expressed as IC50 values.
Final assay conditions: 20 mM Tris (Hampton Research—HR-937-06), pH 7.5, 1 mM DTT (Invitrogen—P2325), 1 mM EDTA (Invitrogen—AM9260G), 5% Glycerol (Teknova—G1796), 0.02% Pluronic F127 (Life Technologies—P6866), 15 nM DNMT1 (full length human DNMT1—GSK made in-house), 240 nM ^3H-SAM (PerkinElmer—NET155H001MC), 1460 nM cold SAM (New England Biolabs—B9003S) and 80 nM 40-mer hemi-methylated DNA Oligonucleotide (Integrated DNA Technologies—custom), 1 mM SAH (Sigma A9384), and 1 mg/mL PEI PVT SPA Beads (Perkin Elmer RPNQ0097) resuspended in water.
On the technique in general: SPA uses beads or plates that emit light when radiolabelled molecules are held near them.

The nature of data set [1]: Drug exposure in blood and tumor of mice bearing SKM-1 xenografts (PK/PD study). It is filed as in vivo, mouse. Conditions: 22, 67 or 200 mg/kg BID PO; blood and tumor two hours following the 20th dose. The procedure:
SKM-1 cells (3.8×10^6) suspended in 50% Matrigel (BD Biosciences)/50% Dulbecco's phosphate-buffered saline (DPBS) were implanted in 8-11 week old female NOD.CB17-Prkdc1NCrCrl mice. Tumors were measured with digital calipers, and stratified block randomized according to tumor size (P value >0.9085) into treatment groups with average tumor volumes of 219 or 1076 mm^3 for efficacy or PK/PD studies respectively. GSK4172239A was formulated weekly in Sterile water. Mice were measured twice weekly for body weight and tumor size. Dosing started on the day after randomization. Animals were dosed twice daily (BID) via oral gavage (PO) with Example 1 at 22, 67, or 200 mg/kg. […] Both samples were precipitated with acetonitrile, and concentrations of Example 4 were determined by HPLC—MS/MS (Waters Acquity uPLC, Sciex API5000). SKM-1 tumor and mouse bone marrow samples were assessed using a global DNA methylation (5-methylcytosine) LC-MS/MS assay. […] An HPLC—MS/MS method was optimized to quantify 2′-deoxycytidine and 5-methyl-2′-deoxycytidine. […] Concentrations of 2′-deoxycytidine and 5-methyl-2′-deoxycytidine were determined using standard curves generated from pure 2′-deoxycytidine (Sigma-Aldrich) and 5-methyl-2′-deoxycytidine (Santa Cruz Biotechnology). […]
Example 1 was evaluated in immunocompromised mice bearing subcutaneous SKM-1 human AML (acute myeloid leukemia) xenografts. […]

Data set [2] concerns global DNA methylation (5-methylcytosine). As to the kind of experiment: Global DNA methylation (5-methylcytosine) LC-MS/MS assay in SKM-1 tumor and mouse bone marrow. It is filed as in vivo. The procedure: (§1) SKM-1 cells (3.8×10^6) suspended in 50% Matrigel (BD Biosciences)/50% Dulbecco's phosphate-buffered saline (DPBS) were implanted in 8-11 week old female NOD.CB17-Prkdc1NCrCrl mice. Tumors were measured with digital calipers, and stratified block randomized according to tumor size (P value >0.9085) into treatment groups with average tumor volumes of 219 or 1076 mm^3 for efficacy or PK/PD studies respectively. GSK4172239A was formulated weekly in Sterile water. Mice were measured twice weekly for body weight and tumor size. Dosing started on the day after randomization. Animals were dosed twice daily (BID) via oral gavage (PO) with Example 1 at 22, 67, or 200 mg/kg. A maximal tumor burden of 2,500 mm^3 for two consecutive measurements was not exceeded during the studies. For the PK/PD study, tumor, blood, and bone marrow were collected two hours following the 20th dose (10 days). For PK, blood was mixed 50:50 with water while tumor was homogenized (Omni hand-held homogenizer) in sterile water at a 1:4 dilution. Both samples were precipitated with acetonitrile, and concentrations of Example 4 were determined by HPLC—MS/MS (Waters Acquity uPLC, Sciex API5000). SKM-1 tumor and mouse bone marrow samples were assessed using a global DNA methylation (5-methylcytosine) LC-MS/MS assay. […] An HPLC—MS/MS method was optimized to quantify 2′-deoxycytidine and 5-methyl-2′-deoxycytidine. […] Concentrations of 2′-deoxycytidine and 5-methyl-2′-deoxycytidine were determined using standard curves generated from pure 2′-deoxycytidine (Sigma-Aldrich) and 5-methyl-2′-deoxycytidine (Santa Cruz Biotechnology). […]
(§2) Example 1 was evaluated in immunocompromised mice bearing subcutaneous SKM-1 human AML (acute myeloid leukemia) xenografts. […] In addition, the mechanistic consequence of inhibiting DNMT1, a decrease in DNA methylation, was assessed globally using a LC-MS/MS-based 5-methylcytosine assay. […] In a subsequent study, to examine anti-tumor efficacy, tumor volume was measured (n=10 animals per group) twice weekly for 4 weeks while on treatment.

In data set [3] the test system is SKM-1 human AML (acute myeloid leukemia) xenografts. Kind of data set: Anti-tumor efficacy in subcutaneous SKM-1 human AML xenografts. It counts as in vivo, mouse. The procedure: as §1, §2
(In xenograft studies the graft and the host belong to different species.)

A short description of the next data set: physchem. Conditions: FaSSIF buffer, pH 6.5, fassif, thermodynamic from solid.

Some results are limits rather than exact numbers.

Consider one compound from US11771711B2, “Substituted pyridines as DNMT1 inhibitors” (GlaxoSmithKline Intellectual Property Development Limited, priority 2021, dated 2023).

Chain of Full-length human DNMT1 (P26358 whole entry): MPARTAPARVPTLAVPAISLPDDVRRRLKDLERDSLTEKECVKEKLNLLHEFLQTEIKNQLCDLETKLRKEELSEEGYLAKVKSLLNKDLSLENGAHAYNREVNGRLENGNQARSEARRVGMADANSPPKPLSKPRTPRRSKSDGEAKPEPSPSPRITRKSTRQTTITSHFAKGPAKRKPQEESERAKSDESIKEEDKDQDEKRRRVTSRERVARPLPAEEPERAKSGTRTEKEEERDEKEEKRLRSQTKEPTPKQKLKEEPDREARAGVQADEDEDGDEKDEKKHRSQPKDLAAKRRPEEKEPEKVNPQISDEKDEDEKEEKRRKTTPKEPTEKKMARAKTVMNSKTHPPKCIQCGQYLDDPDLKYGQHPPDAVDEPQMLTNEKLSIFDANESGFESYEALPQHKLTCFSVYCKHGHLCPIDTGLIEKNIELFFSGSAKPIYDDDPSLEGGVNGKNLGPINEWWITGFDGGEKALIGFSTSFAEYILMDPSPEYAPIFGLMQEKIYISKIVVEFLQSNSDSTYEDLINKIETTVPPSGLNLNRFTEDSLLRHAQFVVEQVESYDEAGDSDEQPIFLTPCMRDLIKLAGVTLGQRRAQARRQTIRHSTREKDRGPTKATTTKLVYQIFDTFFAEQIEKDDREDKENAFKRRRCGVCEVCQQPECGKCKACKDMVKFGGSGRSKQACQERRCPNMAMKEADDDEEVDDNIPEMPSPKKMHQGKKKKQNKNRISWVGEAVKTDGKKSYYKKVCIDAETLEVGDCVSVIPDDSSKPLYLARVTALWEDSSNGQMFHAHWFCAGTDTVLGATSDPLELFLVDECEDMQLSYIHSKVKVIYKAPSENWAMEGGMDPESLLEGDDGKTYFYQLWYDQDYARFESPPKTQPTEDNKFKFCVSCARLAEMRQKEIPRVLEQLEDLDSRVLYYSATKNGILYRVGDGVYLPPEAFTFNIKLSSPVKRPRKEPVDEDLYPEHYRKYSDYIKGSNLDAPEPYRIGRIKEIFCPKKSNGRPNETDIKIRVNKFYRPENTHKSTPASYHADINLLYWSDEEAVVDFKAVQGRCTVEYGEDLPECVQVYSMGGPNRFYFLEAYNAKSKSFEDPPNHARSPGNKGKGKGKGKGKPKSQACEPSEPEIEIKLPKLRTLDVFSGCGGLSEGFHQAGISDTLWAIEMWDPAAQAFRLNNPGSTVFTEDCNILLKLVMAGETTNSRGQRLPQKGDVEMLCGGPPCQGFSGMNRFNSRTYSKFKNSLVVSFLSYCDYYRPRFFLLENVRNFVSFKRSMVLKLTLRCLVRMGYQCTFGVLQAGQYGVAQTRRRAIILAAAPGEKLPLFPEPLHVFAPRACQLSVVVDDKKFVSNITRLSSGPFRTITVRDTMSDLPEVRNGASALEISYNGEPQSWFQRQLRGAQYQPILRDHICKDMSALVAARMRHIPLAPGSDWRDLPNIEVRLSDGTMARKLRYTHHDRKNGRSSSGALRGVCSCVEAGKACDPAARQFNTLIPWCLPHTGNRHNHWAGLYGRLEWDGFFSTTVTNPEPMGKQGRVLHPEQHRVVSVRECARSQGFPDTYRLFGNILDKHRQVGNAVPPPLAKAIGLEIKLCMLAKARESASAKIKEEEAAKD
Procedure for physchem: Solubility of Solid Compounds in Fasted Simulated Intestinal Fluid
The solubility of solid compounds in Fasted Simulated Intestinal Fluid (FaSSIF) was determined at pH 6.5 after 4 hour equilibration at room temperature (using procedures described in Sou, T.; Bergström, C. A. S. Automated assays for thermodynamic (equilibrium) solubility determination. Drug Discovery Today: Technologies 2018, 27, 11-19). 1 ml of FaSSIF buffer (3 mM Sodium taurocholate, 0.75 mM lecithin in sodium phosphate buffer at pH6.5) was added to manually weighed 1 mg of solid compound in a 4 ml vial. The resulting suspension was shaken at 900 rpm for 4 hours at room temperature and then transferred to a Multiscreen HTS, 96-well solubility filter plate to separate the residual solid and the filtrate. Quantification of the compound concentration in the filtrate was performed by HPLC-UV using single point calibration of a known concentration of the compound in DMSO. […] The dynamic range of the assay was 1-1000 μg/ml.

Consider `CCc1c(C#N)c(S[C@@H](C(=O)NP(=O)(O)O)c2ccc(OS(C)(=O)=O)cc2)nc(N(C)C)c1C#N` [Example 1, (R)-(2-((3,5-dicyano-6-(dimethylamino)-4-ethylpyridin-2-yl)thio)-2-(4-((methylsulfonyl)oxy)phenyl)acetyl)phosphoramidic acid], for which the IC50 (usually the concentration that gives 50% inhibition) at Full-length human DNMT1 worked out at 16.1 µM. For the same compound, in data set [1], the “drug exposure (measured as the racemic active moiety Example 4)” value is “dose-proportional and roughly equivalent in blood and tumor”. Besides, in data set [2] (22, 67 or 200 mg/kg BID PO, 10 days), the “global DNA methylation in comparison to vehicle” value is “reduced at all doses”. Moreover, in data set [2] (SKM-1 tumor, 200 mg/kg BID PO, two hours following the 20th dose (10 days)), the “maximal change (reduction) in global DNA methylation in the tumor vs vehicle” value came out at 49%. Also, the “maximal change (reduction) in global DNA methylation in the bone marrow vs vehicle” value in data set [2] (mouse bone marrow, 200 mg/kg BID PO, two hours following the 20th dose (10 days)) was found to be 47%. The compound also registered a tumor growth inhibition in data set [3] (22 mg/kg BID PO, vs vehicle at day 22) of 35%. In data set [3] (200 mg/kg BID PO, vs vehicle at day 22), the tumor response entry was “marked regression”. In addition, the tumor volume result in data set [3] (22, 67 or 200 mg/kg BID PO, measured twice weekly for 4 weeks) is “dose-dependent reduction”. Further, the solubility (commonly how much of the substance goes into solution per volume) at 4 h in “physchem” was over 1000 µg/mL.
